This is an account of results in US20240350448A1, “DICHLOROACETIC ACID CONJUGATING DIPHENYL ETHANE COMPOUND, AND PREPARATION METHOD AND APPLICATION THEREOF” (SHANGHAI ECUSTBIOMEDICINECOMPANY LTD., priority 2021, published 2024).

Test [1] relates to SGC7901. Briefly: CCK-8 anti-tumor activity, IC50. The conditions noted are these: for IC50: Homo sapiens, SGC-7901, SGC7901, 72 hours. In kind it is cell-based, human. As for the experimental part:
(§1) Take cells in logarithmic growth phase for experiments. Digest and count the cells, then make them into a cell suspension in 1×10^5 cells/mL, next seed the cell suspension in a 96-hole plate (100 μL per hole), then place the plate in a 5% CO2 incubator at 37° C. to be incubated for 24 hours. Add a subject with a corresponding concentration into each hole, and concurrently set up a negative control group and a blank group, each of which has 3 holes. After having placed the plate in the incubator for 72 hours, observe the morphologies of cells in each group under a microscope, then add a 10 μL CCK8 solution to each hole, and continue incubating the cells in the incubator for 4 hours, measure the absorbance value at 450 nm. In the test, take cells with 8 concentration gradients respectively, then measure the inhibition rate corresponding to each concentration. Use the GraphPad Prism 5.0 statistical software to treat data, use the t-test software to make a comparison between two groups, and use the One-way Anova (Dunnett) software to make a comparison among multiple groups. if P<0.05, the results have statistical significance, and then calculate the IC50 value.

Test [2] relates to MCF-7. Briefly: CCK-8 anti-tumor activity, IC50. In kind it is cell-based, human. Particulars: for IC50: Homo sapiens, MCF7, MCF-7, 72 hours. As for the experimental part:
as §1

For test [3], the system named is HepG2 cell strain. Briefly: In-vitro inhibitory activity against proliferation of tumor cells (CCK8, inhibition rate). In kind it is cell-based, human. The conditions noted are these: for inhibition at 1 µM / inhibition at 10 µM / inhibition at 0.1 µM: Homo sapiens, 72 hours. As for the experimental part:
Take cells in logarithmic growth phase for experiments. Digest and count the cells, then make them into a cell suspension in 1×10^5 cells/mL, next seed the cell suspension in a 96-hole plate (100 μL per hole), then place the plate in a 5% CO2 incubator at 37° C. to be incubated for 24 hours. Add a subject with a corresponding concentration into each hole, and concurrently set up a negative control group and a blank group, each of which has 3 holes. After having placed the plate in the incubator for 72 hours, observe the morphologies of cells in each group under a microscope, then add a 10 μL CCK8 solution to each hole, and continue incubating the cells in the incubator for 4 h. Measure the absorbance value at 450 nm, and calculate the inhibition rate of cell proliferation; if P<0.05, the results have statistical significance.

Test [4] deals with A549. The experiment in a line: CCK-8 anti-tumor activity, IC50. In kind it is cell-based. The conditions noted are these: Homo sapiens, 72 hours. As for the experimental part:
as §1

For test [5], the system named is HepG2. Briefly: CCK-8 anti-tumor activity, IC50. In kind it is cell-based. Particulars: Homo sapiens. As for the experimental part: as §1
For test [6], the system named is Hela. Briefly: CCK-8 anti-tumor activity, IC50. In kind it is cell-based. Particulars: Homo sapiens. As for the experimental part: as §1
Test [7] relates to SW480. The experiment in a line: CCK-8 anti-tumor activity, IC50. In kind it is cell-based. The conditions noted are these: Homo sapiens, 72 hours. As for the experimental part:
as §1

The test system of test [8] is human hepatoma cell HepG2 xenotransplantation tumor. Briefly: Gavage administration, inhibition of xenografted tumors of tumor-bearing nude mice. In kind it is in vivo. The conditions noted are these: 14 times; for Tumor weight: day 15; for Inhibition rate(%): tumor weight vs model group. The source says: Inoculate the human hepatoma cell strain HepG2 subcutaneously at an armpit of a nude mouse, as to establish a human hepatoma cell HepG2 xenotransplantation tumor model. Take the cells HepG2 in logarithmic growth phase, under sterile conditions, inoculate the cells subcutaneously at right armpits of 55 nude mice. Measure the diameter of the xenograft tumors by a vernier caliper, when the tumors grow to about 100 mm^3, choose 48 tumor-bearing nude mice having an uniform tumor size in a good growth status, then randomly divide them into 8 groups, each of which has 6 mice, namely a model group, a 7a low-dosage group (50 mg/kg), a 7a medium-dosage group (100 mg/kg), a 7a high-dosage group (150 mg/kg), and a sorafenib group (50 mg/kg). Share an isovolumic solvent among the mice in the model group through gavage, administer drugs through gavage once a day. Administer drugs in the 7a low-dosage group, the 7a medium-dosage group, and the 7a high-dosage group once a day at 50 mg/kg, 100 mg/kg, and 150 mg/kg, respectively, to reach 14 times administration in total. Administer drugs in the sorafenib group once a day at 50 mg/kg, to reach 14 times administration in total. Dynamically observe the anti-tumor effect of the subjects by adopting the method of measuring tumor diameters. Measure the tumor diameter on alternate days, while weigh the body weight of nude mice. On the 15th day, kill the mice, then pick away tumor lumps surgically and weigh them, and preserve the tumor tissue in a liquid nitrogen tank, next calculate the tumor inhibition rate (%). Tumor inhibition rate (%)= (tumor weight in the model group-tumor weight in the administration group)/tumor weight in the model group×100%.

[9] abbreviates: read-out: IC50 value against the Hela cells.

Broadly, the IC50 is the concentration needed to halve the response being measured. Usually inhibition stands for the drop in the measured response relative to a control, in per cent. Low values mean a weak effect, high ones a strong effect.

Molecules are shown by their SMILES. Where two headings read alike, the source gives them in different places.

`COc1ccc(CCc2cc(OC)c(OC)c(OC)c2)cc1OC(=O)C(Cl)Cl` [7a, 2-methoxy-5-(3,4,5-trimethoxyphenylethyl) phenyl 2,2-dichloroacetate]: the IC50 came out at 469 nM in test [1]; 656 nM in test [2]; 726 nM in test [4]; 48.9 nM in test [5] (72 hours, read-out: IC50); 48.9 nM in test [5] (read-out: IC50 value against the HepG2 cells); 516 nM in test [6] (72 hours, read-out: IC50). Besides, the 50% inhibitory concentration (IC50) in test [6] (setting [9]) was 516 nM; in test [7] it was 940 nM. Also, the “inhibitory activity against HepG2 cells (in words)” value in test [3] was “good inhibitory activity”. The compound further yielded an inhibition at 1 µM in test [3] of 94.43 ± 0.89%. Besides, in test [3], the inhibition at 10 µM came to 89.3 ± 1.5%. The “Tumor weight” value in test [8] (50 mg/kg gavage once a day) turned out to be 0.569 ± 0.103 g; in test [8] (100 mg/kg gavage once a day), 0.479 ± 0.100 g; in test [8] (150 mg/kg gavage once a day), 0.314 ± 0.076 g. The “Inhibition rate(%)” value in test [8] (50 mg/kg gavage once a day) was 62.0%; in test [8] (100 mg/kg gavage once a day) it was 72.4%; in test [8] (150 mg/kg gavage once a day), 86.9%.

Turning to `CCOc1ccc(CCc2cc(OC)c(OC)c(OC)c2)cc1OC(=O)C(Cl)Cl` [7b], in test [3], the “inhibitory activity against HepG2 cells (in words)” value is listed as “better than that of erianin”, at 0.1 µM the inhibition was 35.7 ± 2.42%, 1 µM produced 48.4 ± 9.88% inhibition and the inhibition at 10 µM amounted to 73.7 ± 4.7%.

`COc1ccc(CCc2cc(OC)c(OC)c(OC)c2)cc1OC(=O)CNC(=O)C(Cl)Cl` [8a, 2-methoxy-5-(3,4,5-trimethoxyphenylethyl) phenyl3-(2,2-dichloroacetamide) acetate]: in test [3], the inhibition at 0.1 µM came out at 18.5 ± 1.16%, at 1 µM the inhibition was 30 ± 2.03% and at 10 µM the inhibition was 45.6 ± 2.53%.

In test [3], `COc1ccc(CCc2cc(OC)c(OC)c(OC)c2)cc1OC(=O)CCNC(=O)C(Cl)Cl` [8b, 2-methoxy-5-(3,4,5-trimethoxyphenyletyl) phenyl3-(2,2-dichloroacetamide) propionate] displayed an inhibition at 0.1 µM of 37.5 ± 4.49%, an inhibition at 1 µM of 55.8 ± 4.37% and an inhibition at 10 µM of 74.2 ± 2.41%.

For `COc1ccc(CCc2cc(OC)c(OC)c(OC)c2)cc1OC(=O)CCCNC(=O)C(Cl)Cl` [8c, 2-methoxy-5-(3,4,5-trimethoxyphenylethy) phenyl4-(2,2-dichloroacetamide) butyrate], in test [3], the inhibition at 0.1 µM was 36.1 ± 11.7%, 1 µM produced 68.7 ± 0.72% inhibition and at 10 µM the inhibition was 89.27 ± 0.66%.

In the case of `COc1ccc(CCc2cc(OC)c(OC)c(OC)c2)cc1OC(=O)CCCCCNC(=O)C(Cl)Cl` [8d, 2-methoxy-5-(3,4,5-trimethoxyphenylethyl) phenyl6-(2,2-dichloroacetamide) hexanoate], the 50% inhibitory concentration (IC50) was found to be 103 nM in test [1]; 174 nM in test [2]; 135 nM in test [5] (72 hours, read-out: IC50); 288 nM in test [6] (72 hours, read-out: IC50); 288 nM in test [6] (setting [9]); 326 nM in test [7]. Also, the “inhibitory activity compared with erianin (in words)” value in test [1] (human gastric cancer SGC7901 cell strains) and in test [2] (human breast cancer MCF-7 cell strains) was “superior to erianin” each time. In addition, the “inhibitory activity against HepG2 cells (in words)” value in test [3] is “good inhibitory activity”. In test [3], this compound returned an inhibition at 0.1 µM of 50.9 ± 4.44%. In test [3], this compound yielded an inhibition at 1 µM of 73 ± 3.1%. The compound also came in with an inhibition at 10 µM in test [3] of 90.6 ± 2.33%.

Regarding `CNC(=O)c1cc(Oc2ccc(NC(=O)Nc3ccc(Cl)c(C(F)(F)F)c3)cc2)ccn1` [sorafenib, reference compound], in test [8] (50 mg/kg gavage once a day), the “Tumor weight” value was found to be 0.581 ± 0.089 g and the “Inhibition rate(%)” value stood at 59.3%.
